For 20 compounds, IC50 results are on record in US9029386B2, “Pyridine derivatives useful as kinase inhibitors” (YM Biosciences Australia Pty Ltd, priority 2006, dated 2015).

Test [1] concerns the target T1, kinase domain of human CSF1-R (Homo sapiens, UniProt P07333).
T1 construct: from codon I553 to Q961; made in house; host or cells: Sf9 insect cells (baculovirus)
T1 sequence (P07333 553-961): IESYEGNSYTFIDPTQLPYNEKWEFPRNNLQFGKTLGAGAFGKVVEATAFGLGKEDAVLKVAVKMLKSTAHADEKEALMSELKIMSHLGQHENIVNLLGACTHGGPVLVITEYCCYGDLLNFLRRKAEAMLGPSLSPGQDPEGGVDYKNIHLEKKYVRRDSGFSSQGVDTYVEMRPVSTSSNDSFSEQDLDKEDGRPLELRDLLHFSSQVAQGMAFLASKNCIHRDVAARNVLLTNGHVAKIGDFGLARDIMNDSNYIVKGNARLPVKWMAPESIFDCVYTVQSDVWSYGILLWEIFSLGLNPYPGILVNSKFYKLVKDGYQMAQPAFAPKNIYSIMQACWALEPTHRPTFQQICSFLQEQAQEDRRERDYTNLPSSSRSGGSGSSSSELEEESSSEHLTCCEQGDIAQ
Kind of test: Alphascreen protein tyrosine kinase assay, CSF-1R. The format is biochemical. The protocol: (§1) For screening purposes, compounds were diluted in 96 well plates at a concentration of 20 μM. Plates were warmed at 37° C. for 30 minutes before assay.
The kinase domain of human CSF1-R from codon I553 to Q961 was cloned into the pDEST-20 expression vector (Invitrogen). The CSF1-R plasmid was then transformed into competent DH10Bac cells (Gibco), and the recombinant baculovirus produced prepared for transfection into Sf9 insect cells.
(§2) Baculovirus preparations from each of construct were infected into five liters of SF9 cells (Invitrogen) grown in SF-900 medium (Invitrogen) to a cell density of approximately 1−2×10^6 cells/ml. […] Cells were harvested and lysed. Tyrosine kinase domains were purified by affinity chromatography on a glutathione-agarose column (Scientifix Pty. Ltd. catalog #: GSH-200).
(§3) Kinase assays were performed in 384 well Optiplates (Packard) using an Alphascreen Protein Tyrosine Kinase kit. […] Alphascreen phosphotyrosine acceptor beads followed by streptavidin donor beads were added under subdued light. The Alphascreen plates were read on a Packard Fusion Alpha. Inhibitors were added to the assays thirty minutes prior to the addition of ATP. Inhibitors were added in aqueous DMSO, with DMSO concentrations never exceeding 1%.

A further test has as its target T2, FLT-3 tyrosine kinase (Homo sapiens, UniProt P36888).
T2 construct: purchased Upstate Cell Signalling Solutions, CA, USA 14-500
T2 sequence (P36888 27-993): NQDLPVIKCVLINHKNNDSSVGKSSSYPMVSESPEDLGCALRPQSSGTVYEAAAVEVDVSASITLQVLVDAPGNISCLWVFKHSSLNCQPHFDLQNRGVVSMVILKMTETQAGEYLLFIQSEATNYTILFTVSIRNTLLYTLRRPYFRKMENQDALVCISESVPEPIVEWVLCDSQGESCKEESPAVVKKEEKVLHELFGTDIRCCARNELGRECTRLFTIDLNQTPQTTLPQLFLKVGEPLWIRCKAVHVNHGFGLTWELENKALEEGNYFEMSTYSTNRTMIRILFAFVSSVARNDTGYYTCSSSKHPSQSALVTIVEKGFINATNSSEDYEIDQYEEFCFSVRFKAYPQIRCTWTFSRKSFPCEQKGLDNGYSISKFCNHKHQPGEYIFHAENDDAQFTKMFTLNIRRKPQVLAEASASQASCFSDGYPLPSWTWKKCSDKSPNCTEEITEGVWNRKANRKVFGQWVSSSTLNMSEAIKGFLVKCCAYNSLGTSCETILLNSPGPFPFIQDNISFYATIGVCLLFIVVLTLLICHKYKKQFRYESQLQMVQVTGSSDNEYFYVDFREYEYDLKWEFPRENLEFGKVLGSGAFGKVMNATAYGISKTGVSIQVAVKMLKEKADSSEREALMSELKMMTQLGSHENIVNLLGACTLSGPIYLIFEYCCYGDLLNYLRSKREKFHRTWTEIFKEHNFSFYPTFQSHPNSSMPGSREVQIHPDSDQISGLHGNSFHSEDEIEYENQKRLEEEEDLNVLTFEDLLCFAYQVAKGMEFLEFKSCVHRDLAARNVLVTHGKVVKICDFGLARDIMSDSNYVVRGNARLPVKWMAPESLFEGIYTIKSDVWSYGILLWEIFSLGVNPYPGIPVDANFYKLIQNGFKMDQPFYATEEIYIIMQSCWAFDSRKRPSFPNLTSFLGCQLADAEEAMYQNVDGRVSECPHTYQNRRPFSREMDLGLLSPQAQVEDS
As to the kind of experiment: Alphascreen protein tyrosine kinase assay, FLT-3. Particulars: read-out: Flt3. The format is biochemical. In general terms: Bead proximity is the source of the signal in Alpha formats.

For test [2], the target named is T3, kinase domain of human c-kit (Homo sapiens, UniProt P10721).
T3 construct: from codon M552 to end; made in house; host or cells: Sf9 insect cells (baculovirus)
T3 sequence (P10721 552-976 limits assumed): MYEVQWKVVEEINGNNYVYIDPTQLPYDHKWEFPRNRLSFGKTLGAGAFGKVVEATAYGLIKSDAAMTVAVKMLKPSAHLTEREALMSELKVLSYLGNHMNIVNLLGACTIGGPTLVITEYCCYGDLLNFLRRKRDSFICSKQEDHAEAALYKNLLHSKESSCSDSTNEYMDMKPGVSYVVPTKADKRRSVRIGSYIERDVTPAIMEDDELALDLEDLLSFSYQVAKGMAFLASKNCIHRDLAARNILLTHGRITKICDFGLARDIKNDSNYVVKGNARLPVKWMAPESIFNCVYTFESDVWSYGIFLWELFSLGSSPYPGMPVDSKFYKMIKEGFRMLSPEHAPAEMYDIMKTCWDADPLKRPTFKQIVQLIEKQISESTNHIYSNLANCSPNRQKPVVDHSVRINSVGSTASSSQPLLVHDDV
Kind of test: Alphascreen protein tyrosine kinase assay, c-KIT. The class given is biochemical. As for the experimental part: as §1
The kinase domain of human c-kit from codon M552 to end was cloned into the pDEST-20 expression vector (Invitrogen). The c-kit plasmid was then transformed into competent DH10Bac cells (Gibco), and the recombinant baculovirus produced prepared for transfection into Sf9 insect cells.
as §2, §3

A further test addresses T4, PDGFR β tyrosine kinase (Homo sapiens, UniProt P09619).
T4 construct: purchased Upstate Cell Signalling Solutions, CA, USA 14-463
Kind of test: Alphascreen protein tyrosine kinase assay, PDGFRβ. The class given is biochemical.

For a further test, the target named is T5, KDR protein kinase (Homo sapiens, UniProt P35968).
T5 construct: purchased Millipore 14-630M
T5 sequence (P35968 20-1356): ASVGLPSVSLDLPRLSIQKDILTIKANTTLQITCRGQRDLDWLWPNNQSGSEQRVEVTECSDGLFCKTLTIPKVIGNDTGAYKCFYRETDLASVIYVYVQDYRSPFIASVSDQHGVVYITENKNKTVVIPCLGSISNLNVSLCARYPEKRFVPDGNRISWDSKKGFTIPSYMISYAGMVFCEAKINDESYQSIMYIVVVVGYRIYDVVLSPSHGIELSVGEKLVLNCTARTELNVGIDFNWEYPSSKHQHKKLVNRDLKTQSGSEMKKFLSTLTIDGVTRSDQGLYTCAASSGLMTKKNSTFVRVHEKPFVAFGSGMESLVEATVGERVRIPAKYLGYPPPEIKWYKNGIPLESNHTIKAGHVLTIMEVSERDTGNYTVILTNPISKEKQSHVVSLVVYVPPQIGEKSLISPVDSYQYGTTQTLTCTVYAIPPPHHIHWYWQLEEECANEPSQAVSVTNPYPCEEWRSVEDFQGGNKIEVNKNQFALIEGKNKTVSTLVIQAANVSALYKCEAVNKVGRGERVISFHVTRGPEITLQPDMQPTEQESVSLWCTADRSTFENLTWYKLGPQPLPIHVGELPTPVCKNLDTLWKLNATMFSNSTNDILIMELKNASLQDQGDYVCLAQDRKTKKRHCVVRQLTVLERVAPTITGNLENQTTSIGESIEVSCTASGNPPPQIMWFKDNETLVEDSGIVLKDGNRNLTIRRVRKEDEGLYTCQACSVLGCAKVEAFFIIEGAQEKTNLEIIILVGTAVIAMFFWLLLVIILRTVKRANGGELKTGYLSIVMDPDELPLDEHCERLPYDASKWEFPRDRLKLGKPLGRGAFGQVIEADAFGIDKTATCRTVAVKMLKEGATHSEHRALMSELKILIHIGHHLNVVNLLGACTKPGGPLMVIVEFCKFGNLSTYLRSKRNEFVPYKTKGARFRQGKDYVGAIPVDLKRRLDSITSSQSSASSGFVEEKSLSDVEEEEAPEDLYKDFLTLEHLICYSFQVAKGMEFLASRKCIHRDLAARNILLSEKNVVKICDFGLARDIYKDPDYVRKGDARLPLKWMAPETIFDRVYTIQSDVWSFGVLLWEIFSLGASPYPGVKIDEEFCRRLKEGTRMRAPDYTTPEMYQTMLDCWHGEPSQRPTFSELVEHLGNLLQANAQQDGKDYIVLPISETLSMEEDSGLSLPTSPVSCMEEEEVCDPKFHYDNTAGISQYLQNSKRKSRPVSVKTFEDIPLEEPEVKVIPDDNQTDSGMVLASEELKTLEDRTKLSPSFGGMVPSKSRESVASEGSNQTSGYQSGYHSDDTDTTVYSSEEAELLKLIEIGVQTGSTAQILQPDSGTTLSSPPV
As to the kind of experiment: Alphascreen protein tyrosine kinase assay, KDR. The class given is biochemical. The protocol: as §1
FLT-3 and PDGFR β tyrosine kinase enzymes were purchased from Upstate Cell Signalling Solutions, CA, USA (flt-3 catalog #: 14-500 and PDGFR β catalog #: 14-463). KDR protein kinase enzyme was purchased from Millipore (catalogue #14-630M).
Kinase assays were performed in 384 well Optiplates (Packard) using an Alphascreen Protein Tyrosine Kinase kit. […] The biotinylated peptides Biotin-[…]-NH2 for c-KIT and PDGFRβ and Biotin-[…]-NH2 for CSF1-R and FLT-3 (final concentration 0.1-3 μM) were used as substrates. Alphascreen phosphotyrosine acceptor beads followed by streptavidin donor beads were added under subdued light. The Alphascreen plates were read on a Packard Fusion Alpha. Inhibitors were added to the assays thirty minutes prior to the addition of ATP. Inhibitors were added in aqueous DMSO, with DMSO concentrations never exceeding 1%.

Another test relates to Baf3-WT. Kind of test: Cellular assay (Alamar Blue), Baf3-WT with mouse IL-3. The class given is cell-based. The conditions noted are these: mouse IL-3 at 5 ng/ml, 72 hr. As for the experimental part: (§4) Cells for the assays were prepared by harvesting cells from culture, and then diluting them in the appropriate growth medium to between 40,000 cell/mL and 600,000 cell/mL, depending on the cell line.
(§5) The compounds to be tested were added (104, 10× final concentration) to a flat bottomed 96-well plate. The cellular suspension (80 μL per well) was added, and one hour later the growth factor was added (human M-CSF at 20 ng/ml for mNFS-60, mouse IL-3 at 5 ng/ml for Baf3-WT). The plate was then incubated for 72 hr at 37° C., 5% CO2. Alamar Blue (10^4 per well) was added and the plates returned to the incubator for a further 4-8 hours.
(§6) The plates were then read using a fluorescence plate reader at excitation 544 nm and emission 590 nm.
Background: The colour change of resazurin is a common sign of viable cells or microbes.

The subject of another test is mNFS-60. Kind of test: Cellular assay (Alamar Blue), mNFS-60 with human M-CSF. The class given is cell-based. Particulars: human M-CSF at 20 ng/ml, 72 hr. The protocol:
as §4, §5, §6

The structures appear in SMILES notation.

T4 sequence (P09619 33-1106): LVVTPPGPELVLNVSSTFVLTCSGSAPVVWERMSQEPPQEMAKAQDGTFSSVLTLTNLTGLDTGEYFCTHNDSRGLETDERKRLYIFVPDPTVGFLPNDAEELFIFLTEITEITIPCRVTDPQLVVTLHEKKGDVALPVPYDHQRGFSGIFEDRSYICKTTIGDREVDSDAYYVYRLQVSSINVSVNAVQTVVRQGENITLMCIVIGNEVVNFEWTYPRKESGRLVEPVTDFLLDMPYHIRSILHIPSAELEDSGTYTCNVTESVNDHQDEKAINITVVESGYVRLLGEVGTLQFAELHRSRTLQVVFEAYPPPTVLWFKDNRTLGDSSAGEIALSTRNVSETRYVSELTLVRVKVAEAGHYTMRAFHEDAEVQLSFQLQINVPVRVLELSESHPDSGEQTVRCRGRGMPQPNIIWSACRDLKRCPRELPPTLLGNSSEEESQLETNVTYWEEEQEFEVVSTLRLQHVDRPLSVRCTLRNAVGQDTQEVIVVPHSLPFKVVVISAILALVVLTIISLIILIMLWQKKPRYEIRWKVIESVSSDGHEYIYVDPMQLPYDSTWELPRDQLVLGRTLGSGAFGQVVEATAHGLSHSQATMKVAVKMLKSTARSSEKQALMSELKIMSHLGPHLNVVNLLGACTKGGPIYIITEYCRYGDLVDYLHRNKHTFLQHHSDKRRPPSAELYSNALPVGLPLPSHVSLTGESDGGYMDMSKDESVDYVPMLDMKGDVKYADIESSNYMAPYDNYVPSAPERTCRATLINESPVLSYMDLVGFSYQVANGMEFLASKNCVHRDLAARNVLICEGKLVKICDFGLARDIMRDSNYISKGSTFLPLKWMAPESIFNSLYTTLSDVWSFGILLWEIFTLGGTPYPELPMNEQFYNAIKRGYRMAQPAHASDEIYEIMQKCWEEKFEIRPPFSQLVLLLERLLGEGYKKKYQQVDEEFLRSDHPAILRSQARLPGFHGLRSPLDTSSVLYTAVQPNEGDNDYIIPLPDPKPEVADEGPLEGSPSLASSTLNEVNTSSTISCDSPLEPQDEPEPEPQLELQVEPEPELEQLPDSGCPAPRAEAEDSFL

Consider `COc1cc(-c2cncc(N[C@@H](C)c3cccc(NC(=O)c4cncc(C)c4)c3)n2)ccc1O` [Compound 28], for which the IC50 in test [1] is below 100 nM; on FLT-3 tyrosine kinase, below 10000 nM; in test [2], below 100 nM; against PDGFR β tyrosine kinase, below 100 nM.

For `Cc1cccc(C(=O)Nc2cccc([C@H](C)Nc3cncc(-c4ccc(N5CCOCC5)cc4)n3)c2)c1` [Compound 81], the IC50 in test [1] was below 100 nM; at FLT-3 tyrosine kinase, above 10000 nM; in test [2] it was below 100 nM; against PDGFR β tyrosine kinase, below 1000 nM.

On to `Cc1cncc(C(=O)Nc2cccc([C@H](C)Nc3cncc(-c4ccc(NCCN5CCOCC5)nc4)n3)c2)c1` [Compound 80], for which the IC50 in test [1] was below 100 nM; at FLT-3 tyrosine kinase it was above 10000 nM; in test [2], below 100 nM; at PDGFR β tyrosine kinase, below 1000 nM.

In the case of `Cc1cncc(C(=O)Nc2cccc([C@H](C)Nc3cncc(-c4ccc(N5CCOCC5)nc4)n3)c2)c1` [Compound 79], the IC50 in test [1] is below 100 nM; at FLT-3 tyrosine kinase, above 10000 nM; in test [2], below 100 nM; on PDGFR β tyrosine kinase, below 1000 nM.

On to `COc1cc(-c2cncc(NC(C)c3cccc(NC(=O)c4cccnc4)c3)n2)ccc1O` (centres unmarked) [Compound 1], for which the IC50 at FLT-3 tyrosine kinase was above 10000 nM; in test [2], below 100 nM; against PDGFR β tyrosine kinase, below 1000 nM.

With `COc1cc(-c2cncc(N[C@@H](C)c3cccc(NC(=O)c4cccc(C)c4)c3)n2)ccc1O` [Compound 76], the IC50 in test [1] was below 100 nM; at FLT-3 tyrosine kinase, below 10000 nM; in test [2], below 100 nM; on PDGFR β tyrosine kinase, below 1000 nM.

As to `Cc1ccnc(C(=O)Nc2cccc([C@H](C)Nc3cncc(Cl)n3)c2)c1` [Compound 82], the IC50 in test [1] was below 100 nM; at FLT-3 tyrosine kinase it was above 10000 nM; in test [2], below 1000 nM; against PDGFR β tyrosine kinase it was below 1000 nM.

With `Cc1cccc(C(=O)Nc2cccc([C@H](C)Nc3cncc(-c4ccc(O)nc4)n3)c2)c1` [Compound 90], the IC50 in test [1] was below 100 nM; on FLT-3 tyrosine kinase, below 10000 nM; in test [2] it was below 1000 nM; against PDGFR β tyrosine kinase, below 1000 nM.

On to `COc1cc(-c2cncc(N[C@@H](C)c3cccc(NC(=O)c4cccnc4)c3)n2)ccc1N` [Compound 7], for which the IC50 in test [1] is below 100 nM; at FLT-3 tyrosine kinase, below 10000 nM; in test [2], below 100 nM; at PDGFR β tyrosine kinase, below 100 nM.

Consider `Cc1cncc(C(=O)Nc2cccc([C@H](C)Nc3cncc(-c4ccc(N5CCOCC5)cc4)n3)c2)c1` [Compound 65], for which the IC50 was below 100 nM against KDR protein kinase; below 100 nM in test [1]; above 10000 nM in the test on Baf3-WT; below 100 nM in test [2]; below 100 nM on PDGFR β tyrosine kinase; below 200 nM in the test on mNFS-60.

With `COc1cc(-c2cncc(N[C@@H](C)c3cccc(NC(=O)c4ccc(C)nc4)c3)n2)ccc1N` [Compound 38], the figures for the IC50 (in test [1]; at FLT-3 tyrosine kinase; in test [2]) were below 100 nM, below 10000 nM and below 100 nM, respectively.

For `Cc1cncc(C(=O)Nc2cccc([C@H](C)Nc3cncc(Br)c3)c2)c1` [Compound 62], the IC50 on KDR protein kinase is below 100 nM; in the test on Baf3-WT it was above 10000 nM; in test [2] it was below 100 nM; at PDGFR β tyrosine kinase, below 100 nM; in the test on mNFS-60 it was below 1000 nM.

In the case of `Cc1cc(C(=O)Nc2cccc([C@H](C)Nc3cncc(Cl)n3)c2)ccn1` [Compound 83], the IC50 (at FLT-3 tyrosine kinase; in test [2]; against PDGFR β tyrosine kinase) was below 1000 nM each time.

In the case of `COc1cccc(-c2cncc(N[C@@H](C)c3cccc(NC(=O)c4cccc(C)c4)c3)n2)c1` [Compound 100], the IC50 on KDR protein kinase is below 100 nM; in test [1], below 100 nM; in the test on Baf3-WT, above 10000 nM; in test [2], below 1000 nM; on PDGFR β tyrosine kinase it was below 100 nM; in the test with mNFS-60 it was below 200 nM.

As for `COc1cc(-c2cncc(N[C@@H](C)c3cccc(NC(=O)c4cncc(C)c4)c3)n2)ccc1N` [Compound 29], the IC50 in test [1] is below 100 nM; on FLT-3 tyrosine kinase, below 10000 nM; in test [2], below 100 nM; against PDGFR β tyrosine kinase, below 100 nM.

Turning to `C[C@H](Nc1cncc(Cl)n1)c1cccc(NC(=O)c2ccc(CN3CCN(C)CC3)cc2)c1` [Compound 91], the IC50 in test [1] is below 100 nM; at FLT-3 tyrosine kinase it was above 10000 nM; in test [2], below 1000 nM; on PDGFR β tyrosine kinase it was below 1000 nM.

Regarding `Cc1ccc(C(=O)Nc2cccc([C@H](C)Nc3cncc(Cl)n3)c2)cc1` [Compound 93], the IC50 on FLT-3 tyrosine kinase was above 10000 nM; in test [2], below 1000 nM; against PDGFR β tyrosine kinase it was below 1000 nM.

Take `Cc1cccc(C(=O)Nc2cccc([C@H](C)Nc3cncc(N4CCC(O)CC4)n3)c2)c1` [Compound 95]: the IC50 in test [1] is below 100 nM; on FLT-3 tyrosine kinase, above 10000 nM; in test [2], below 1000 nM; against PDGFR β tyrosine kinase it was below 1000 nM.

Take `COc1cccc(-c2cncc(N[C@@H](C)c3cccc(NC(=O)c4cncc(C)c4)c3)n2)c1` [Compound 24]: the IC50 was below 100 nM on KDR protein kinase; below 100 nM in test [1]; below 10000 nM on FLT-3 tyrosine kinase; above 10000 nM in the test with Baf3-WT; below 100 nM in test [2]; below 100 nM on PDGFR β tyrosine kinase. Further, in the test with mNFS-60, the IC50 is below 200 nM.

Take `Cc1cncc(C(=O)Nc2cccc([C@H](C)Nc3cncc(Cl)n3)c2)c1` [Compound 42, N-(3-{(1S)-1-[(6-chloropyrazin-2-yl)amino]ethyl}phenyl)-5-methylnicotinamide]: the figures for the IC50 (at FLT-3 tyrosine kinase; in test [2]; against PDGFR β tyrosine kinase) were above 10000 nM, below 100 nM and below 1000 nM, respectively.
